Assays:
[1] = tested on: protein kinase (C-terminal His-tag); test: SPR binding profiles of binders against captured protein kinase, single concentration; conditions: 10 μM ATP; FIG. 8
Excerpt: A BIACORE® S51 instrument (Biacore AB, Uppsala, Sweden) was used. This instrument has two Y-type flow cells which allow a dual flow of fluids over a sensor chip surface, so-called hydrodynamic addressing, as described in, for example, EP-B1-1021703 (the disclosure of which is incorporated by reference herein). The instrument uses three parallel detection spots on the sensor chip. As sensor chip was used Series S Sensor Chip CM5 (Biacore AB, Uppsala, Sweden) which has a gold-coated surface with a covalently linked carboxymethyl-modified dextran polymer hydrogel. The output from the instrument is a “sensorgram” which is a plot of detector response (measured in “resonance units”, RU) as a function of time. An increase of 1000 RU corresponds to an increase of mass on the sensor surface of approximately 1 ng/mm^2.
100 μg/ml of Penta-His™ antibody, BSA-free (Qiagen, Venlo, Netherlands) in 0.15 M NaCl was diluted to 30 μg/ml in 10 mM sodium acetate buffer pH 5.0 and immobilized on a Series S Sensor Chip CM5 by amine coupling according to the manufacturer's instructions. The contact time was 10 min, the flow rate was 10 μl/min, and 10 mM PBS was used as running buffer. A little less than 12000 RU of antibody were immobilized. […]

HSA [2] = target: T1, HSA (Homo sapiens, UniProt P02768); test: SPR (BIACORE S51) competition assay for HSA-binding site specificity, dissociation-phase response of mixtures; conditions: for effect of additional reference compounds on dissociation response of S1 on HSA: S1 constant 0.1 μM, reference 0-50 μM, d2 report point, FIG. 6
T1 construct: purchased Sigma A-4327
T1 sequence (P02768 25-609): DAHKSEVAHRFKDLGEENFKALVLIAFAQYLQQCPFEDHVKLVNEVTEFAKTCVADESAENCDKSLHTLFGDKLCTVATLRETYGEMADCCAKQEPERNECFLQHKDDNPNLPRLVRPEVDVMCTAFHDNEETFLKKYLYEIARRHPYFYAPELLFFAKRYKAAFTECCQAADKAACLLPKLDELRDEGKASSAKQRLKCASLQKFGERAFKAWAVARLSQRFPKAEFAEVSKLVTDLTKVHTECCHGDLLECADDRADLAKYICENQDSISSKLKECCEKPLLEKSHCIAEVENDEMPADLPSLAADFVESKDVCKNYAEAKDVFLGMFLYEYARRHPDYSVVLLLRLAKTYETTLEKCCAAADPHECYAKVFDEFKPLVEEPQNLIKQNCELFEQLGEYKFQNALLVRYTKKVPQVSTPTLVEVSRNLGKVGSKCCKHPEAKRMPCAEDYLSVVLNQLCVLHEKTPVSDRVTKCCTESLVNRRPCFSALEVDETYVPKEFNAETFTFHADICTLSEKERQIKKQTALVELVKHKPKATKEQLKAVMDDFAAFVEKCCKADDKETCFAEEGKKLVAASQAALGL

HSA [3] = target: T1, HSA; conditions: known site specificity of reference compounds (crystallography studies); cited from earlier work

## Nc1ncnc2c1ncn2[C@@H]1O[C@H](COP(=O)(O)OP(=O)(O)OP(=O)(O)O)[C@@H](O)[C@H]1O [ATP, adenosine triphosphate]
[1]
  association/dissociation profile on the protein kinase: very rapid binding and dissociation profile

## C[C@H]1O[C@@H](O[C@H]2[C@@H](O)C[C@H](O[C@H]3[C@@H](O)C[C@H](O[C@H]4CC[C@@]5(C)[C@H](CC[C@@H]6[C@@H]5CC[C@]5(C)[C@@H](C7=CC(=O)OC7)CC[C@]65O)C4)O[C@@H]3C)O[C@@H]2C)C[C@H](O)[C@@H]1O [digitoxin]
HSA [2]
  effect of the reference compound on binding/dissociation phase of S1 on HSA: does not seem to affect the dissociation phase much

## O=C1NC(=O)C(c2ccccc2)(c2ccccc2)N1 [phenyloin]
HSA [2]
  effect of additional reference compounds on dissociation response of S1 on HSA: follow the behaviour of warfarin and naproxen respectively
HSA [3]
  known HSA-binding site: site II

## COc1cc(NS(=O)(=O)c2ccc(N)cc2)nc(OC)n1 [sulfadimethoxine]
HSA [2]
  effect of additional reference compounds on dissociation response of S1 on HSA: deviates from the behaviour of warfarin
HSA [3]
  known HSA-binding site: site I

— US7320879B2, “Method of determining site-specificity and kit therefor” (Biacore AB, priority 2002, dated 2008)
